{
  "source": "patent US20260325465A1",
  "about": "“SHP-1 INHIBITORS FOR TREATING CANCER” (MDX MANAGEMENT LLC, priority 2022, published 2026)",
  "key": {"[1]": {"test": "Study-3: adverse effects", "format": "in vivo, mice", "settings": "TPI-1 with RT and αPD-L1", "experimental": "(§1) FIGS. 13A-13E depict pulse-intermittent SHP-1 inhibition (iSHP-1) combination with RT and αPD-L1 treating pancreatic cancer and lung cancer. FIG. 13A depicts experimental schemes. […] Concomitantly, the tumor at the right flank was treated with 8Gy X-ray radiation (RT). After two days of intermittent period, mice on day 4 were treated with the 2nd cycle TPI-1 (i.p.) of the same dose while RT reduced to 4Gy applied to the right flank tumor. The 3rd cycle (day 7) iSHP-1 combination with RT reduced to 2Gy. Anti-PD-L1 Ab (100 μg, i.p.) was given a day following TPI-1 plus RT. FIG. 13B depicts luminescent image tracing KPC-luc and LLC-luc tumor changes post treatment. FIG. 13C depicts record of tumor volume changes and animal survival up to post-treatment 45 days.\n(§2) Modalities & Dosing Strategy: i) iSHP-1—TPI-1, 3 or 5 mg/kg, i.p., 1× every 3 days. ii) Tumor focal RT: 8Gy-4Gy-2Gy, given to right flank simultaneously with iSHP-1. iii) αPD-L1: 100 μg, i.p., given a day after iSHP-1 plus RT"}, "[2]": {"system": "PTP activity in macrophages", "test": "PTP activity in macrophages co-cultured with cancer cells and stimulated with IFNγ/LPS or TLR agonists", "format": "cell-based", "set-up": "concentration or dose not given beside the values", "settings": "induced by IFNγ/LPS or TLR agonists, with cancer cell ligation, 30 min, 37 °C", "experimental": "(§3) FIGS. 3A-3E depict modulation of SHP-1 activity in proinflammatory macrophages in cancer. Macrophages co-cultured with cancer cells were stimulated with IFNγ/LPS or TLR agonists (αTLR) comprising CpG, polycytidylic acid (i.e., PolyI:C) and R848 (each 0.4 μg/ml) for 30 min (37 °C) in the presence or the absence of different SHP-1 or SHP-2 inhibitor or activator, followed by cell lysis and assays of PTP activity. FIG. 3A depicts SHP-1 activity regulation mechanisms. […] FIG. 3E depicts that PKCθ negatively regulates SHP-1 activity at a moderate level."}, "[3]": {"system": "MC38 colorectal carcinoma", "test": "TME analysis of MC38 colorectal carcinoma in mice", "format": "in vivo, murine", "source_text": "(§4) FIGS. 8A-8E depict that SHP-1 inhibition combined with TLR agonists (αTLR) reprograms TME of MC38 colorectal carcinoma. FIG. 8A depicts MC38 tumor treatment scheme."}, "[4]": {"system": "LLC lung cancer", "test": "Study-3: iSHP-1 with RT and αPD-L1, LLC lung cancer", "format": "in vivo, mice", "settings": "TPI-1 3 or 5 mg/kg i.p. every 3 days, right flank RT 8Gy-4Gy-2Gy, αPD-L1 100 μg", "experimental": "as §1, §2"}, "[5]": {"system": "macrophages", "test": "Macrophage cytokine production and antigen presentation machinery in a tumor milieu", "format": "cell-based", "settings": "IFNγ/LPS", "experimental": "(§5) FIGS. 2A-2G depict that the inhibition of SHP-1 enhances macrophage proinflammatory response, antigen presentation and phagocytosis in a tumor milieu. FIG. 2A and FIG. 2B depict that SHP-1 activity in macrophages is triggered by proinflammatory stimulation and the extracellular cancer cell ligation (“touching”) of macrophages (green bar in FIG. 2A). […] The SHP-2 inhibitor SHP099 (1 μg/ml) was used in assays. FIG. 2C depicts the inhibition of SHP-1 by TPI-1 dose-dependently recovers IFNγ/LPS-induced activation of STAT1 (p-STAT1) and Erk1/2 (p-Erk1/2) de-activated by SHP-1 (red line). FIG. 2D and FIG. 2E depict that the inhibition of SHP-1 in macrophages by TPI-1 enhances production of proinflammatory cytokines (FIG. 2D) and expression of immunogenic antigen presentation machinery (FIG. 2E) by IFNγ/LPS in a tumor milieu. […] The SHP-1 and SHP-2 inhibitors TPI-1 and SHP099, respectively, was used at 1 μg/ml in assays.\nMacrophages with high SHP-1 activity in a tumor milieu diminish production of proinflammatory cytokines but produce high IL-10 (see FIG. 2D, blue bar) under stimulation of IFNγ/LPS. This reinforcement of immunosuppression was reversed by SHP-1 inhibition. Additionally, inhibition of SHP-1 also enabled proinflammatory-activated macrophages to overcome the “don't-eat-me” barrier and initiate potent phagocytosis towards cancer cells, irrespective of cancer cells expressing of CD47 (FIG. 2F and FIG. 2G)."}, "[6]": {"system": "MC38 tumor", "test": "Ex vivo treatment of excised MC38 tumor", "set-up": "species or system murine", "settings": "TPI-1 and αTLR", "source_text": "as §4\nConsistent with these changes, TME analyses of MC38 colorectal and KPC pancreatic tumors treated with TLR agonist combined with TPI-1 or RT (FIGS. 8A-8E & 9) found rapid infiltration of inflammatory neutrophils (ROShigh) and tumor-killing NK cells (Granzhigh), and the strong antigen presentation also brought about the expansion of tumor-specific (p15E-reactive) cytotoxic T cells harboring high tumoricidal capacity (Granzhigh). The immunosuppressive compartments in the same TME, including MDSC and Treg, were reduced. […] Ex vivo infusion of TLR agonists and TPI-1 together, but not each individually, into excised tumors induced the similar response of T cell expansion."}, "[7]": {"system": "KPC pancreatic ductal adenocarcinoma", "test": "TME analysis of KPC pancreatic ductal adenocarcinoma with tumor-focal RT", "format": "in vivo, murine", "settings": "TPI-1 combined RT", "source_text": "FIGS. 9A-9C depict that the inhibition of SHP-1 by TPI-1 combined with tumor-focal RT reprogram TME of KPC pancreatic ductal adenocarcinoma towards proinflammatory cancer elimination. FIG. 9A depicts treatment scheme and TME analyses on day 5. The table depicts the percentages of various populations within total CD45+ cells. The bar graph depicts the percentages of various populations within total cells."}, "[8]": {"system": "SHP-1", "test": "SHP-1 activity in macrophages under proinflammatory stimulation and cancer cell ligation", "format": "cell-based", "settings": "IFNγ/LPS stimulation, cancer cell ligation", "experimental": "as §5, §3\nIn addition to TPI-1, several other SHP-1 inhibitors such as PTP inhibitor-I, PTP inhibitor-III, and recently reported vitamin E (9, 10) and phomoxanthone A and B (P×A and P×B) (11) were tested. Given that PKCθ modulates SHP-1 activity through phosphorylating Ser591 (12, 13), PKCθ inhibitor and activator were also tested in various assays."}},
  "data": [
    {"molecule": "O=C1C=CC(=O)C(c2cc(Cl)ccc2Cl)=C1", "note": "[TPI-1]", "values": [
      {"measurement": "lung inflammation", "setting": "[1]", "result": "nor did it incur lung inflammation"},
      {"measurement": "splenomegaly, body weight loss, anemia", "setting": "[1]", "result": "did not cause splenomegaly, body weight loss or anemia"},
      {"measurement": "PTP activity diminished in macrophages", "setting": "[2]", "result": "> 70", "unit": "%"},
      {"measurement": "intratumoral macrophages", "setting": "[3]; TPI-1 and αTLR", "result": "marked reduction of intratumoral macrophages"},
      {"measurement": "TME reprogramming", "setting": "[3]; TPI-1 combined with αTLR", "result": "reduction of tumor cells, and increases in immune infiltration especially tumoricidal CD8 T cells, neutrophils (PMN) and NK cells, while reduction of macrophages, MDSC and Treg"},
      {"measurement": "tumor elimination incl. distal lesions", "setting": "[4]", "result": "effectively eliminating or repressing KPC pancreatic cancer and LLC lung cancer along with distal lesions"},
      {"measurement": "expression of immunogenic antigen presentation machinery", "setting": "[5]", "result": "elevated macrophage production of proinflammatory cytokines and expression of immunogenic antigen presentation machinery"},
      {"measurement": "macrophage proinflammatory cytokine production", "setting": "[5]", "result": "elevated macrophage production of proinflammatory cytokines"},
      {"measurement": "reinforcement of immunosuppression (IL-10)", "setting": "[5]", "result": "reversed"},
      {"measurement": "CD8 T cell expansion in excised tumor", "setting": "[6]", "result": "induced CD8 T cell expansion"},
      {"measurement": "CD8 T cell expansion and p15E reactivity", "setting": "[7]", "result": "marked expansion of CD8 T cells with significant high frequency of reactivity to tumor-specific antigen p15E"},
      {"measurement": "intratumoral macrophage phenotype", "setting": "[7]", "result": "proinflammatory phenotype and increased antigen presentation capacity"},
      {"measurement": "immune cell infiltration in TME", "setting": "[7]; day 5", "result": "induced neutrophil (PMN) infiltration, NK cell increases and CD8 T cell expansion"},
      {"measurement": "SHP-1 activity in macrophages (effect in words)", "setting": "[8]", "result": "potently inhibited SHP-1 activity at low concentrations"}
    ]}
  ]
}
